Assay results taken from ChEMBL document CHEMBL1201861, “Genomics of Drug Sensitity in Cancer screening data, Wellcome Trust Sanger Institute”.

Experiments:
Assay in all cases: cells
Settings in all cases: Homo sapiens
MFH-ino = format: functional, cell-based;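 note: growth inhibition of human MFH-ino cells, read out by a cell viability assay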
Description: SANGER: Inhibition of human MFH-ino cell growth in a cell viability assay.

NMC-G1 = format: functional, cell-based;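 note: growth inhibition of the NMC-G1 cell line, measured with a cell viability read-out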
Description: SANGER: Inhibition of human NMC-G1 cell growth in a cell viability assay.

CAS-1 = format: functional, cell-based;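 note: growth inhibition of CAS-1 cells, measured with a cell viability assay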
Description: SANGER: Inhibition of human CAS-1 cell growth in a cell viability assay.

GCIY = format: functional, cell-based;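 note: growth inhibition of the human GCIY cell line, read out by a cell viability assay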
Description: SANGER: Inhibition of human GCIY cell growth in a cell viability assay.

EW-22 = format: functional, cell-based;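 note: growth inhibition of the EW-22 cell line, measured with a cell viability readout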
Description: SANGER: Inhibition of human EW-22 cell growth in a cell viability assay.

NCI-H526 = format: functional, cell-based;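 note: growth inhibition of the human NCI-H526 cell line, measured by a cell viability assay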
Description: SANGER: Inhibition of human NCI-H526 cell growth in a cell viability assay.

RPMI-8866 = format: functional, cell-based
Description: SANGER: Inhibition of human RPMI-8866 cell growth in a cell viability assay.

UACC-257 = format: functional, cell-based
Description: SANGER: Inhibition of human UACC-257 cell growth in a cell viability assay.

NCI-H209 = format: functional, cell-based;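 note: growth inhibition of human NCI-H209 cells, measured by a cell viability assay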
Description: SANGER: Inhibition of human NCI-H209 cell growth in a cell viability assay.

Lu-65 = format: functional, cell-based;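 note: growth inhibition of Lu-65 cancer cells, read out by a cell viability assay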
Description: SANGER: Inhibition of human LU-65 cell growth in a cell viability assay.

NOS-1 = format: functional, cell-based;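 note: growth inhibition of the human NOS-1 cell line, read out with a cell viability assay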
Description: SANGER: Inhibition of human NOS-1 cell growth in a cell viability assay.

GI-ME-N = format: functional, cell-based;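 note: growth inhibition of human GI-ME-N cells, read out with a cell viability assay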
Description: SANGER: Inhibition of human GI-ME-N cell growth in a cell viability assay.

EOL1 = format: functional, cell-based;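 note: growth inhibition of EoL-1 cells, read out by a cell viability assay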
Description: SANGER: Inhibition of human EoL-1-cell cell growth in a cell viability assay.

COLO-320-HSR = format: functional, cell-based;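 note: growth inhibition of COLO-320-HSR cells, determined with a cell viability assay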
Description: SANGER: Inhibition of human COLO-320-HSR cell growth in a cell viability assay.

SJSA-1 = format: functional, cell-based;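 note: growth inhibition of human SJSA-1 cells, read out through a cell viability measurement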
Description: SANGER: Inhibition of human SJSA-1 cell growth in a cell viability assay.

SBC-5 = format: functional, cell-based;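 note: cell viability assay read-out, IC50 is the concentration that inhibits growth of the cells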
Description: SANGER: Inhibition of human SBC-5 cell growth in a cell viability assay.

COLO-829 = format: functional, cell-based
Description: SANGER: Inhibition of human COLO-829 cell growth in a cell viability assay.

ES8 = format: functional, cell-based;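 note: growth inhibition of human ES8 cells, read out with a cell viability assay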
Description: SANGER: Inhibition of human ES8 cell growth in a cell viability assay.

BHY = format: functional, cell-based;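 note: cell growth inhibition read out by a viability assay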
Description: SANGER: Inhibition of human BHY cell growth in a cell viability assay.

RS4-11 = format: functional, cell-based;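 note: growth inhibition of RS4-11 cells, read out by a cell viability assay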
Description: SANGER: Inhibition of human RS4-11 cell growth in a cell viability assay.

A4-Fuk = format: functional, cell-based;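 note: growth inhibition of A4-Fuk cells, read out by a cell viability assay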
Description: SANGER: Inhibition of human A4-Fuk cell growth in a cell viability assay.

HCC1187 = format: functional, cell-based;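 note: growth inhibition of HCC1187 cells, read out with a cell viability assay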
Description: SANGER: Inhibition of human HCC1187 cell growth in a cell viability assay.

CHP-212 = format: functional, cell-based
Description: SANGER: Inhibition of human CHP-212 cell growth in a cell viability assay.

TE-1 = format: functional, cell-based;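 note: growth inhibition of the human TE-1 cell line, read out with a cell viability assay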
Description: SANGER: Inhibition of human TE-1 cell growth in a cell viability assay.

U2OS = format: functional, cell-based, U-2-OS;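 note: growth inhibition of human U-2-OS cells, determined with a cell viability assay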
Description: SANGER: Inhibition of human U-2-OS cell growth in a cell viability assay.

EW-18 = format: functional, cell-based;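 note: growth inhibition of EW-18 cells, read out by a cell viability assay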
Description: SANGER: Inhibition of human EW-18 cell growth in a cell viability assay.

K5 = format: functional, cell-based
Description: SANGER: Inhibition of human K5 cell growth in a cell viability assay.

HH = format: functional, cell-based
Description: SANGER: Inhibition of human HH cell growth in a cell viability assay.

MPP-89 = format: functional, cell-based;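 note: growth inhibition of human MPP-89 cells, read out with a cell viability assay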
Description: SANGER: Inhibition of human MPP-89 cell growth in a cell viability assay.

NCI-H1581 = format: functional, cell-based;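 note: cell growth inhibition read out by a viability assay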
Description: SANGER: Inhibition of human NCI-H1581 cell growth in a cell viability assay.

NKM-1 = format: functional, cell-based;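 note: growth inhibition of NKM-1 cells, read out with a cell viability assay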
Description: SANGER: Inhibition of human NKM-1 cell growth in a cell viability assay.

SCC-15 = format: functional, cell-based;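 note: growth inhibition of SCC-15 cells, read out with a cell viability assay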
Description: SANGER: Inhibition of human SCC-15 cell growth in a cell viability assay.

SHP77 = format: functional, cell-based, SHP-77;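 note: growth inhibition of human SHP-77 cells measured by a cell viability assay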
Description: SANGER: Inhibition of human SHP-77 cell growth in a cell viability assay.

LB2518-MEL = format: functional, cell-based;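 note: growth inhibition of human LB2518-MEL cells, measured with a cell viability assay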
Description: SANGER: Inhibition of human LB2518-MEL cell growth in a cell viability assay.

NCI-H720 = format: functional, cell-based;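 note: growth inhibition of human NCI-H720 cells determined by a cell viability assay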
Description: SANGER: Inhibition of human NCI-H720 cell growth in a cell viability assay.

P30-OHK = format: functional, cell-based;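 note: growth inhibition of the P30-OHK cell line, read out with a cell viability assay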
Description: SANGER: Inhibition of human P30-OHK cell growth in a cell viability assay.

HCT-116 = format: functional, cell-based
Description: SANGER: Inhibition of human HCT-116 cell growth in a cell viability assay.

HOP-62 = format: functional, cell-based;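 note: cell growth inhibition determined with a viability assay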
Description: SANGER: Inhibition of human HOP-62 cell growth in a cell viability assay.

SK-MEL-2 = format: functional, cell-based;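 note: growth inhibition of human SK-MEL-2 cells measured with a cell viability assay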
Description: SANGER: Inhibition of human SK-MEL-2 cell growth in a cell viability assay.

JVM-2 = format: functional, cell-based;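 note: growth inhibition of JVM-2 cells determined by a cell viability assay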
Description: SANGER: Inhibition of human JVM-2 cell growth in a cell viability assay.

SF-268 = format: functional, cell-based;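 note: growth inhibition of SF-268 cells determined with a cell viability assay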
Description: SANGER: Inhibition of human SF268 cell growth in a cell viability assay.

OVCAR-5 = format: functional, cell-based;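 note: growth inhibition of human OVCAR-5 cells, read out with a cell viability assay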
Description: SANGER: Inhibition of human OVCAR-5 cell growth in a cell viability assay.

HCE-4 = format: functional, cell-based;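 note: cell viability assay measuring inhibition of growth in the human HCE-4 cell line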
Description: SANGER: Inhibition of human HCE-4 cell growth in a cell viability assay.

LS-1034 = format: functional, cell-based
Description: SANGER: Inhibition of human LS-1034 cell growth in a cell viability assay.

NCI-H747 = format: functional, cell-based;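 note: growth inhibition of human NCI-H747 cells, read out by a cell viability assay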
Description: SANGER: Inhibition of human NCI-H747 cell growth in a cell viability assay.

AM-38 = format: functional, cell-based;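 note: growth inhibition of AM-38 cells of human origin, read out by a cell viability assay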
Description: SANGER: Inhibition of human AM-38 cell growth in a cell viability assay.

SNU-C2B = format: functional, cell-based;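 note: cell viability readout used to measure compound-driven suppression of SNU-C2B cell proliferation, IC50 marking half-maximal growth inhibition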
Description: SANGER: Inhibition of human SNU-C2B cell growth in a cell viability assay.

MDA-MB-175-VII = format: functional, cell-based
LS-411N = format: functional, cell-based
LAN-6 = format: functional, cell-based;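 note: growth inhibition of LAN-6 cells, determined with a cell viability assay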
Description: SANGER: Inhibition of human LAN-6 cell growth in a cell viability assay.

HAL-01 = format: functional, cell-based;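 note: growth inhibition of human HAL-01 cells, read out with a cell viability assay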
Description: SANGER: Inhibition of human HAL-01 cell growth in a cell viability assay.

OVCAR-4 = format: functional, cell-based;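 note: growth inhibition of human OVCAR-4 cells, measured with a cell viability assay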
Description: SANGER: Inhibition of human OVCAR-4 cell growth in a cell viability assay.

DJM-1 = format: functional, cell-based;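 note: growth inhibition of human DJM-1 cells, read out by a cell viability assay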
Description: SANGER: Inhibition of human DJM-1 cell growth in a cell viability assay.

SW872 = format: functional, cell-based;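 note: growth inhibition of SW872 cells, read out by a viability assay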
Description: SANGER: Inhibition of human SW872 cell growth in a cell viability assay.

LS-123 = format: functional, cell-based
Description: SANGER: Inhibition of human LS-123 cell growth in a cell viability assay.

NCI-H69 = format: functional, cell-based;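 note: growth inhibition of the cell line, read out with a cell viability assay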
Description: SANGER: Inhibition of human NCI-H69 cell growth in a cell viability assay.

QIMR-WIL = format: functional, cell-based;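 note: growth inhibition of QIMR-WIL cells, read out with a cell viability assay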
Description: SANGER: Inhibition of human QIMR-WIL cell growth in a cell viability assay.

NB10 = format: functional, cell-based;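 note: growth inhibition of NB10 cells, read out by a cell viability assay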
Description: SANGER: Inhibition of human NB10 cell growth in a cell viability assay.

PSN1 = format: functional, cell-based;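 note: suppression of growth of human PSN1 cells, read out by a cell viability assay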
Description: SANGER: Inhibition of human PSN1 cell growth in a cell viability assay.

IST-SL1 = format: functional, cell-based
Description: SANGER: Inhibition of human IST-SL1 cell growth in a cell viability assay.

DK-MG = format: functional, cell-based
Description: SANGER: Inhibition of human DK-MG cell growth in a cell viability assay.

ACN = format: functional, cell-based
Description: SANGER: Inhibition of human ACN cell growth in a cell viability assay.

NB6 = format: functional, cell-based
Description: SANGER: Inhibition of human NB6 cell growth in a cell viability assay.

HCE-T = format: functional, cell-based
Description: SANGER: Inhibition of human HCE-T cell growth in a cell viability assay.

ESS-1 = format: functional, cell-based
Description: SANGER: Inhibition of human ESS-1 cell growth in a cell viability assay.

Measured: IC50

C[C@]1(c2nc3c(C(N)=O)cccc3[nH]2)CCCN1 [VELIPARIB]
> 5 µM: MFH-ino | NMC-G1 | CAS-1 | GCIY | EW-22 | NCI-H526 | RPMI-8866 | UACC-257 | NCI-H209 | Lu-65 | NOS-1 | GI-ME-N | COLO-320-HSR | SJSA-1 | SBC-5 | COLO-829 | ES8 | BHY | RS4-11 | A4-Fuk | HCC1187 | CHP-212 | TE-1 | U2OS | EW-18 | K5 | HH | MPP-89 | NCI-H1581 | NKM-1 | SCC-15 | SHP77 | LB2518-MEL | NCI-H720 | P30-OHK | HCT-116 | HOP-62 | SK-MEL-2 | JVM-2 | SF-268 | OVCAR-5 | HCE-4 | LS-1034 | NCI-H747 | AM-38 | SNU-C2B | MDA-MB-175-VII | LS-411N | LAN-6 | HAL-01 | OVCAR-4 | DJM-1 | SW872 | LS-123 | NCI-H69 | QIMR-WIL | NB10 | PSN1 | IST-SL1 | DK-MG | ACN | NB6 | HCE-T | ESS-1
1.08 µM: EOL1
